# Test results reported in PMC5218480 (PLoS ONE, 2017).
# System: MV-4-11 cells
# Assay: Gene expression microarray analysis (Affymetrix PrimeView) and GSEA
# Assay type: cell-based, human
# Parameters: RFU PODN (11730768_x_at) / Fold change /veh PODN (11730768_x_at) / RFU LINC00158 (11744669_a_at) / Fold change /veh LINC00158 (11744669_a_at) / RFU DUSP10 (11751237_a_at) / Fold change /veh DUSP10 (11751237_a_at) / RFU ID3 (11757404_x_at) / Fold change /veh ID3 (11757404_x_at) / RFU PLEKHG5 (11737974_s_at) / Fold change /veh PLEKHG5 (11737974_s_at) / RFU LRRC4B (11730491_at) / Fold change /veh LRRC4B (11730491_at) / RFU GIMAP4 (11747438_a_at) / Fold change /veh GIMAP4 (11747438_a_at) / RFU KRT8 (11758183_x_at) / Fold change /veh KRT8 (11758183_x_at) / RFU CNN1 (11734310_a_at) / Fold change /veh CNN1 (11734310_a_at) / RFU VPS37D (11726825_at) / Fold change /veh VPS37D (11726825_at) / RFU C10orf10 (11716522_x_at) / Fold change /veh C10orf10 (11716522_x_at) / RFU KIR2DL2 /// KIR2DL4 /// KIR2DL5A /// KIR2DL5B /// KIR2DS1 /// KIR2DS2 /// KIR2DS3 /// KIR2DS4 /// KIR3DL3 /// KIR3DL3 /// KIR3DS1 (11738374_at) / Fold change /veh KIR2DL2 /// KIR2DL4 /// KIR2DL5A /// KIR2DL5B /// KIR2DS1 /// KIR2DS2 /// KIR2DS3 /// KIR2DS4 /// KIR3DL3 /// KIR3DL3 /// KIR3DS1 (11738374_at) / RFU C1QL1 (11718748_at) / Fold change /veh C1QL1 (11718748_at) / RFU TMPRSS4 (11747572_a_at) / Fold change /veh TMPRSS4 (11747572_a_at) / RFU HAMP (11756126_x_at) / Fold change /veh HAMP (11756126_x_at) / RFU RNFT2 (11725882_a_at) / Fold change /veh RNFT2 (11725882_a_at) / RFU NR4A2 (11747474_a_at) / Fold change /veh NR4A2 (11747474_a_at) / RFU ABCC12 (11746883_a_at) / Fold change /veh ABCC12 (11746883_a_at) / RFU TMEM136 (11760407_x_at) / Fold change /veh TMEM136 (11760407_x_at) / RFU CLDN22 /// WWC2 (11732394_at) / Fold change /veh CLDN22 /// WWC2 (11732394_at) / RFU HLA-DPB1 (11760878_x_at) / Fold change /veh HLA-DPB1 (11760878_x_at) / RFU SPINT1 (11716480_a_at) / Fold change /veh SPINT1 (11716480_a_at) / RFU GAP43 (11754022_s_at) / Fold change /veh GAP43 (11754022_s_at) / RFU A4GNT (11735810_at) / Fold change /veh A4GNT (11735810_at) / RFU PRB3 (11715151_x_at) / Fold change /veh PRB3 (11715151_x_at) / RFU TUBB4B (11761932_at) / Fold change /veh TUBB4B (11761932_at) / RFU CAPN14 (11732068_a_at) / Fold change /veh CAPN14 (11732068_a_at) / RFU TMCC2 (11721928_a_at) / Fold change /veh TMCC2 (11721928_a_at) / RFU IRGQ (11745062_a_at) / Fold change /veh IRGQ (11745062_a_at) / RFU FAM174B (11720279_a_at) / Fold change /veh FAM174B (11720279_a_at) / RFU TMPRSS4 (11748680_a_at) / Fold change /veh TMPRSS4 (11748680_a_at) / RFU FAM212B (11763350_a_at) / Fold change /veh FAM212B (11763350_a_at) / RFU PLEKHG5 (11743358_a_at) / Fold change /veh PLEKHG5 (11743358_a_at) / RFU ZSCAN30 (11745921_a_at) / Fold change /veh ZSCAN30 (11745921_a_at) / RFU CMKLR1 (11741424_a_at) / Fold change /veh CMKLR1 (11741424_a_at) / RFU LOC101060620 /// MAPK8IP1 (11723275_at) / Fold change /veh LOC101060620 /// MAPK8IP1 (11723275_at) / RFU SPTSSB (11747773_x_at) / Fold change /veh SPTSSB (11747773_x_at) / RFU PRSS12 (11739890_at) / Fold change /veh PRSS12 (11739890_at) / RFU BIN1 (11741810_x_at) / Fold change /veh BIN1 (11741810_x_at) / RFU WNT11 (11732464_a_at) / Fold change /veh WNT11 (11732464_a_at) / RFU C10orf10 (11716521_a_at) / Fold change /veh C10orf10 (11716521_a_at) / RFU C5orf56 (11738089_at) / Fold change /veh C5orf56 (11738089_at) / RFU CYB561 (11721691_x_at) / Fold change /veh CYB561 (11721691_x_at) / RFU ANKRD19P (11752326_a_at) / Fold change /veh ANKRD19P (11752326_a_at) / RFU OR2T12 /// OR2T33 /// OR2T8 (11738714_s_at) / Fold change /veh OR2T12 /// OR2T33 /// OR2T8 (11738714_s_at) / RFU VCAN (11748164_a_at) / Fold change /veh VCAN (11748164_a_at) / RFU JSRP1 (11732532_at) / Fold change /veh JSRP1 (11732532_at) / RFU KRTAP10-11 (11738290_x_at) / Fold change /veh KRTAP10-11 (11738290_x_at) / RFU MYO3A (11730013_a_at) / Fold change /veh MYO3A (11730013_a_at) / RFU EBF3 (11725865_a_at) / Fold change /veh EBF3 (11725865_a_at) / RFU CAMK2N1 (11719241_x_at) / Fold change /veh CAMK2N1 (11719241_x_at) / RFU C5orf56 (11738088_a_at) / Fold change /veh C5orf56 (11738088_a_at) / RFU OLFML3 (11715873_a_at) / Fold change /veh OLFML3 (11715873_a_at) / RFU LOC100653217 /// NTM (11731650_a_at) / Fold change /veh LOC100653217 /// NTM (11731650_a_at) / RFU MAPK11 (11762145_a_at) / Fold change /veh MAPK11 (11762145_a_at) / RFU FIZ1 (11724087_x_at) / Fold change /veh FIZ1 (11724087_x_at) / RFU OASL (11726364_x_at) / Fold change /veh OASL (11726364_x_at) / RFU SOX15 (11748057_x_at) / Fold change /veh SOX15 (11748057_x_at) / RFU CD79A (11719716_a_at) / Fold change /veh CD79A (11719716_a_at) / RFU HIST1H1D (11736915_at) / Fold change /veh HIST1H1D (11736915_at) / RFU CASKIN2 (11723855_a_at) / Fold change /veh CASKIN2 (11723855_a_at) / RFU LOC730098 (11760151_x_at) / Fold change /veh LOC730098 (11760151_x_at) / RFU OR4N2 (11742367_at) / Fold change /veh OR4N2 (11742367_at) / RFU PRRT2 (11749266_a_at) / Fold change /veh PRRT2 (11749266_a_at) / RFU SNX32 (11753110_a_at) / Fold change /veh SNX32 (11753110_a_at) / RFU CDHR5 (11726645_a_at) / Fold change /veh CDHR5 (11726645_a_at) / RFU RCAN1 (11760418_a_at) / Fold change /veh RCAN1 (11760418_a_at) / RFU FAM167A (11723789_a_at) / Fold change /veh FAM167A (11723789_a_at) / RFU FAM26E (11764081_at) / Fold change /veh FAM26E (11764081_at) / RFU ISYNA1 (11749810_s_at) / Fold change /veh ISYNA1 (11749810_s_at) / RFU ACY1 (11761880_at) / Fold change /veh ACY1 (11761880_at) / RFU 11764098_at / Fold change /veh 11764098_at / RFU SAMD14 (11745864_x_at) / Fold change /veh SAMD14 (11745864_x_at) / RFU NPB (11741838_a_at) / Fold change /veh NPB (11741838_a_at) / RFU TMPRSS6 (11731388_a_at) / Fold change /veh TMPRSS6 (11731388_a_at) / RFU KRTAP10-2 (11738614_at) / Fold change /veh KRTAP10-2 (11738614_at) / RFU ARHGAP8 /// PRR5-ARHGAP8 (11727945_x_at) / Fold change /veh ARHGAP8 /// PRR5-ARHGAP8 (11727945_x_at) / RFU KRTAP5-7 /// NADSYN1 (11734609_at) / Fold change /veh KRTAP5-7 /// NADSYN1 (11734609_at) / RFU RASL12 (11751679_a_at) / Fold change /veh RASL12 (11751679_a_at) / RFU CDKN2B (11736163_a_at) / Fold change /veh CDKN2B (11736163_a_at) / RFU PRF1 (11729649_at) / Fold change /veh PRF1 (11729649_at) / RFU, ZNF638 /// ZNF638-IT1 / Fold change vs veh, ZNF638 /// ZNF638-IT1 / RFU, PANK3 / Fold change vs veh, PANK3 / RFU, SH3YL1 / Fold change vs veh, SH3YL1 / RFU, ZEB2 / Fold change vs veh, ZEB2 / RFU, NRIP1 / Fold change vs veh, NRIP1 / RFU, PTTG1IP / Fold change vs veh, PTTG1IP / RFU, CAPN2 / Fold change vs veh, CAPN2 / RFU, MED14 / Fold change vs veh, MED14 / RFU, SNORA58 / Fold change vs veh, SNORA58 / RFU, C1orf63 / Fold change vs veh, C1orf63 / RFU, LRRFIP1 / Fold change vs veh, LRRFIP1 / RFU, NDUFAF7 / Fold change vs veh, NDUFAF7 / RFU, SLC12A2 / Fold change vs veh, SLC12A2 / RFU, IBTK / Fold change vs veh, IBTK / RFU, ESF1 / Fold change vs veh, ESF1 / Fold change vs veh, TMEM50B / RFU, TAOK1 / Fold change vs veh, TAOK1 / RFU, ACBD3 / Fold change vs veh, ACBD3 / RFU, TMA16 / Fold change vs veh, TMA16 / RFU, RWDD3 / Fold change vs veh, RWDD3 / RFU, BCAT1 / Fold change vs veh, BCAT1 / RFU, EDEM3 / Fold change vs veh, EDEM3 / RFU, TMEM33 / Fold change vs veh, TMEM33 / RFU, WDR75 / Fold change vs veh, WDR75 / RFU, AHCTF1 / Fold change vs veh, AHCTF1 / RFU, TFRC / Fold change vs veh, TFRC / RFU, ZDHHC17 / Fold change vs veh, ZDHHC17 / RFU, NOM1 / Fold change vs veh, NOM1 / RFU, ARL8B / Fold change vs veh, ARL8B / RFU, ZBTB11 / Fold change vs veh, ZBTB11 / RFU, TAMM41 / Fold change vs veh, TAMM41 / RFU, KIAA1704 /// LOC100996395 / Fold change vs veh, KIAA1704 /// LOC100996395 / RFU, ING1 / Fold change vs veh, ING1 / RFU, TRMT61B / Fold change vs veh, TRMT61B / RFU, FUBP3 / Fold change vs veh, FUBP3 / RFU, TP53 / Fold change vs veh, TP53 / RFU, TNKS2 / Fold change vs veh, TNKS2 / RFU, ZFP14 / Fold change vs veh, ZFP14 / RFU, ACTR2 / Fold change vs veh, ACTR2 / RFU, PPP3R1 / Fold change vs veh, PPP3R1 / RFU, PIK3R1 / Fold change vs veh, PIK3R1 / RFU, HNRNPA1 / Fold change vs veh, HNRNPA1 / RFU, RNF170 / Fold change vs veh, RNF170 / RFU, ZNF28 / Fold change vs veh, ZNF28 / RFU, RNGTT / Fold change vs veh, RNGTT / RFU, OGT / Fold change vs veh, OGT / RFU, BRD1 / Fold change vs veh, BRD1 / RFU, MARS / Fold change vs veh, MARS / RFU, ZNF655 / Fold change vs veh, ZNF655 / RFU, FAHD1 / Fold change vs veh, FAHD1 / RFU, BDP1 / Fold change vs veh, BDP1 / RFU, LRRCC1 / Fold change vs veh, LRRCC1 / RFU, ARID1A / Fold change vs veh, ARID1A / RFU, ZNF146 / Fold change vs veh, ZNF146 / RFU, ZNF330 / Fold change vs veh, ZNF330 / RFU, GPN3 / Fold change vs veh, GPN3 / RFU, C9orf123 / Fold change vs veh, C9orf123 / RFU, N4BP2L2 / Fold change vs veh, N4BP2L2 / RFU, ARFIP1 / Fold change vs veh, ARFIP1 / RFU, FAM179B / Fold change vs veh, FAM179B / RFU, BCL10 / Fold change vs veh, BCL10 / RFU, UHRF1BP1L / Fold change vs veh, UHRF1BP1L / RFU, BET1 / Fold change vs veh, BET1 / RFU, CNOT2 / Fold change vs veh, CNOT2 / RFU, ZNF268 / Fold change vs veh, ZNF268 / Fold change vs veh, ZNF507 / RFU, DGCR2 / Fold change vs veh, DGCR2 / RFU, WDSUB1 / Fold change vs veh, WDSUB1 / Fold change vs veh, HSP90B1 /// MIR3652 / RFU, ADSS / Fold change vs veh, ADSS / RFU, GK / Fold change vs veh, GK / RFU, ZNF148 / Fold change vs veh, ZNF148 / RFU, TAF9 / Fold change vs veh, TAF9 / RFU, SLC1A5 / Fold change vs veh, SLC1A5 / RFU, SLMO2 / Fold change vs veh, SLMO2 / RFU, ABCC4 / Fold change vs veh, ABCC4 / RFU, LOC101060439 /// RAP1B / Fold change vs veh, LOC101060439 /// RAP1B / RFU, RFX7 / Fold change vs veh, RFX7 / RFU, GTPBP10 / Fold change vs veh, GTPBP10 / RFU, CNEP1R1 / Fold change vs veh, CNEP1R1 / RFU, BIVM-ERCC5 /// ERCC5 / Fold change vs veh, BIVM-ERCC5 /// ERCC5 / RFU, ILF3 / Fold change vs veh, ILF3 / RFU 11762660_at / Fold change /veh 11762660_at / RFU VCAN (11757783_s_at) / Fold change /veh VCAN (11757783_s_at) / RFU DDX43 (11728927_at) / Fold change /veh DDX43 (11728927_at) / RFU KRT8 (11758188_x_at) / Fold change /veh KRT8 (11758188_x_at) / RFU NKD1 (11759106_at) / Fold change /veh NKD1 (11759106_at) / RFU SRD5A1 (11742802_a_at) / Fold change /veh SRD5A1 (11742802_a_at) / RFU TPSAB1 /// TPSB2 (11721975_s_at) / Fold change /veh TPSAB1 /// TPSB2 (11721975_s_at) / RFU GSTM3 (11746129_a_at) / Fold change /veh GSTM3 (11746129_a_at) / RFU IL23R (11737362_x_at) / Fold change /veh IL23R (11737362_x_at) / RFU TMEM51 (11727254_a_at) / Fold change /veh TMEM51 (11727254_a_at) / RFU PIWIL2 (11732686_x_at) / Fold change /veh PIWIL2 (11732686_x_at) / RFU ORM1 (11744905_x_at) / Fold change /veh ORM1 (11744905_x_at) / RFU CCDC152 (11743942_at) / Fold change /veh CCDC152 (11743942_at) / RFU ECM1 (11717891_a_at) / Fold change /veh ECM1 (11717891_a_at) / RFU IL23R (11748794_a_at) / Fold change /veh IL23R (11748794_a_at) / RFU TNFAIP8L3 (11732012_x_at) / Fold change /veh TNFAIP8L3 (11732012_x_at) / RFU MBOAT4 (11741988_at) / Fold change /veh MBOAT4 (11741988_at) / RFU 11764193_at / Fold change /veh 11764193_at / RFU TMEM53 (11763286_at) / Fold change /veh TMEM53 (11763286_at) / RFU MAGEB2 (11727129_at) / Fold change /veh MAGEB2 (11727129_at) / RFU TMEM200A (11744735_a_at) / Fold change /veh TMEM200A (11744735_a_at) / RFU CCDC152 (11751479_a_at) / Fold change /veh CCDC152 (11751479_a_at) / RFU FAM211A (11726209_a_at) / Fold change /veh FAM211A (11726209_a_at) / RFU RGS16 (11746705_a_at) / Fold change /veh RGS16 (11746705_a_at) / RFU VCAN (11755009_s_at) / Fold change /veh VCAN (11755009_s_at) / RFU RHOB (11743442_s_at) / Fold change /veh RHOB (11743442_s_at) / RFU RGS16 (11720943_a_at) / Fold change /veh RGS16 (11720943_a_at) / RFU RGS16 (11720944_at) / Fold change /veh RGS16 (11720944_at) / RFU, VPS4B / Fold change vs veh, VPS4B / RFU, CREB1 / Fold change vs veh, CREB1 / RFU, DNAJC13 / Fold change vs veh, DNAJC13 / RFU, GNAQ / Fold change vs veh, GNAQ / RFU, CDK5R1 / Fold change vs veh, CDK5R1 / RFU, ZRANB3 / Fold change vs veh, ZRANB3 / RFU, CUL4A / Fold change vs veh, CUL4A / RFU, CCNY / Fold change vs veh, CCNY / RFU, UFL1 / Fold change vs veh, UFL1 / RFU, COG3 / Fold change vs veh, COG3 / RFU, DIAPH2 / Fold change vs veh, DIAPH2 / RFU, SKA2 / Fold change vs veh, SKA2 / RFU, AFF3 / Fold change vs veh, AFF3 / RFU, LMF1 / Fold change vs veh, LMF1 / RFU, IPO11 / Fold change vs veh, IPO11 / RFU, DFFB / Fold change vs veh, DFFB / RFU, FOXP1 / Fold change vs veh, FOXP1 / RFU, CARD8 / Fold change vs veh, CARD8 / RFU, STRN3 / Fold change vs veh, STRN3 / RFU, ADK / Fold change vs veh, ADK / RFU, RASSF2 / Fold change vs veh, RASSF2 / RFU, WIPF1 / Fold change vs veh, WIPF1 / RFU, LARP1B / Fold change vs veh, LARP1B / RFU, RASA1 / Fold change vs veh, RASA1 / RFU, RB1 / Fold change vs veh, RB1 / RFU, PPFIA1 / Fold change vs veh, PPFIA1 / RFU, MAT2A / Fold change vs veh, MAT2A / RFU, CCT5 / Fold change vs veh, CCT5 / RFU, WDR92 / Fold change vs veh, WDR92 / RFU, CUX1 / Fold change vs veh, CUX1 / RFU, TTC7A / Fold change vs veh, TTC7A / RFU, TMEM135 / Fold change vs veh, TMEM135 / RFU, DEPTOR / Fold change vs veh, DEPTOR / RFU, CPM / Fold change vs veh, CPM / RFU, DNAJB6 / Fold change vs veh, DNAJB6 / RFU, CACNA2D3 / Fold change vs veh, CACNA2D3 / RFU, DTX4 / Fold change vs veh, DTX4 / RFU, TFCP2 / Fold change vs veh, TFCP2 / RFU, GMCL1 /// GMCL1P1 / Fold change vs veh, GMCL1 /// GMCL1P1 / RFU, AEBP2 / Fold change vs veh, AEBP2 / RFU, SNHG1 /// SNORD22 /// SNORD25 /// SNORD26 /// SNORD27 /// SNORD28 /// SNORD29 /// SNORD31 / Fold change vs veh, SNHG1 /// SNORD22 /// SNORD25 /// SNORD26 /// SNORD27 /// SNORD28 /// SNORD29 /// SNORD31 / Fold change (Aza/veh), C12orf56 (ProbeSet 11735607_a_at) / Fold change (ACY-1035/veh), C12orf56 (ProbeSet 11735607_a_at) / Fold change (Aza/veh), FGFR1OP (ProbeSet 11751329_s_at) / Fold change (ACY-1035/veh), FGFR1OP (ProbeSet 11751329_s_at) / Fold change (Aza/veh), VPS36 (ProbeSet 11739960_a_at) / Fold change (ACY-1035/veh), VPS36 (ProbeSet 11739960_a_at) / RFU SYPL1 (11715823_x_at) / Fold change /veh SYPL1 (11715823_x_at) / RFU IGFBP7 (11715501_s_at) / Fold change /veh IGFBP7 (11715501_s_at) / RFU REEP3 (11722064_at) / Fold change /veh REEP3 (11722064_at) / RFU IGLL1 (11728026_x_at) / Fold change /veh IGLL1 (11728026_x_at): dose or concentration left out as unconfirmed
# Conditions: ProbeSet 11739263_x_at; LIST D
smiles,measurement,value
Nc1ccc(-c2cccs2)cc1NC(=O)c1ccc2c(c1)cc(C1CC1)n2CCN1CCOCC1 [ACY-1035],"RFU, VPS4B",70.19 RFU
